Experimental data from patent publication US7396837B2, “Antitumoral analogs of lamellarins” (Pharma Mar, S.A.U., priority 2002, dated 2008).
Read-outs that look alike come from different tables or passages of the source.

How the values were obtained:
Assay type in all cases: cell-based
K-562 = test: SRB colorimetric cell growth inhibition assay, K-562; conditions: for GI50: GI=growth inhibition, read-out: GI50 K-562; for CC50: read-out: LC50 K-562; for IC (TGI): read-out: TGI K-562
How it was run: (§1)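 Human tumour cells were exposed continuously to the test sample, and growth and viability were quantified by sulforhodamine B staining. Means ± SD came from triplicate wells, and GI, TGI (cytostatic) and LC (cell killing) parameters were derived.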

A-549 = test: SRB colorimetric cell growth inhibition assay, A-549; conditions: for GI50: GI=growth inhibition, read-out: GI50 A-549; for CC50: read-out: LC50 A-549; for IC (TGI): read-out: TGI A-549
How it was run: as §1

SK-MEL-28 = test: SRB colorimetric cell growth inhibition assay, SK-MEL-28; conditions: for GI50: GI=growth inhibition, read-out: GI50 MEL-28; for CC50: cell killing (cytotoxic effect), read-out: LC50 MEL-28
How it was run: as §1

HT-29 = test: SRB colorimetric cell growth inhibition assay, HT-29; conditions: for GI50: GI=growth inhibition, read-out: GI50 HT-29; for CC50: read-out: LC50 HT-29; for IC (TGI): read-out: TGI HT-29
How it was run: as §1

LoVo = test: SRB colorimetric cell growth inhibition assay, LoVo; conditions: for GI50: GI=growth inhibition, read-out: GI50 LOVO; for CC50: read-out: LC50 LOVO; for IC (TGI): read-out: TGI LOVO
How it was run: as §1

LoVo-Dox = test: SRB colorimetric cell growth inhibition assay, LoVo-Dox (MDR); conditions: LOVO-DOX; for GI50: GI=growth inhibition, read-out: GI50 LOVO-DOX; for CC50: read-out: LC50 LOVO-DOX; for IC (TGI): read-out: TGI LOVO-DOX
How it was run: as §1

DU-145 = test: SRB colorimetric cell growth inhibition assay, DU-145; conditions: for GI50: GI=growth inhibition, read-out: GI50 DU-145; for CC50: cell killing (cytotoxic effect), read-out: LC50 DU-145
How it was run: as §1

LNCaP = test: SRB colorimetric cell growth inhibition assay, LNCaP; conditions: LN-caP; for GI50: GI=growth inhibition, read-out: GI50 LN-caP; for CC50: cell killing (cytotoxic effect), read-out: LC50 LN-caP; for IC (TGI): total growth inhibition (cytostatic effect), read-out: TGI LN-caP
How it was run: as §1

SK-BR-3 = test: SRB colorimetric cell growth inhibition assay, SK-BR-3; conditions: for GI50: GI=growth inhibition, read-out: GI50 SK-BR-3; for CC50: cell killing (cytotoxic effect), read-out: LC50 SK-BR-3
How it was run: as §1

IGROV = test: SRB colorimetric cell growth inhibition assay, IGROV; conditions: IGROV; for GI50: GI=growth inhibition, read-out: GI50 IGROV; for CC50: cell killing (cytotoxic effect), read-out: LC50 IGROV
How it was run: as §1

IGROV-ET = test: SRB colorimetric cell growth inhibition assay, IGROV-ET (ET-743 resistant); conditions: IGROV-ET; for GI50: GI=growth inhibition, read-out: GI50 IGROV-ET; for CC50: cell killing (cytotoxic effect), read-out: LC50 IGROV-ET
How it was run: as §1

PANC-1 = test: SRB colorimetric cell growth inhibition assay, PANC-1; conditions: for GI50: GI=growth inhibition, read-out: GI50 PANC-1; for CC50: read-out: LC50 PANC-1; for IC (TGI): read-out: TGI PANC-1
How it was run: as §1

SKOV-3 = test: SRB colorimetric cell growth inhibition assay, SKOV-3; conditions: Homo sapiens; for GI50: SK-OV-3, SKOV-3, GI=growth inhibition, read-out: GI50 SKOV-3; for LC50 (concentration causing 50% net cell killing) / IC (TGI): SK-OV-3, SKOV-3; for LC50 (concentration causing 50% net cell killing): cell killing (cytotoxic effect), read-out: LC50 SKOV-3; for IC (TGI): total growth inhibition (cytostatic effect), read-out: TGI SKOV-3
Text: (§2) A colorimetric type of assay, using sulforhodamine B (SRB) reaction has been adapted for a quantitative measurement of cell growth and viability (following the technique described by P. A. Skehan, et al., J. Natl. Cancer Inst. 1990, 82, 1107-1112).
(§3) This form of assay employs 96 well cell culture microplates of 9 mm diameter (T. Mosmann et al., J. of Immunological Methods 1983, 65, 55-63; G. T. Faircloth et al., J. of Tissue and Culture Methods 1988, 11, 201-205).
(§4) Most of the cell lines are obtained from American Type Culture Collection (ATCC) derived from different human cancer types.
(§5) The values for mean +/− SD of data from triplicate wells are calculated. Some parameters for cellular responses can be calculated: GI=growth inhibition, TGI=total growth inhibition (cytostatic effect) and LC=cell killing (cytotoxic effect).

[1] = SRB colorimetric cell growth inhibition assay, H-MEC-1; conditions: human, H-MEC-1 cells; H-MEC-1; cell killing (cytotoxic effect); read-out: LC50 H-MEC-1
Text: as §2, §3, §4, §5

H-MEC-1 = test: as above; conditions: Homo sapiens, HMEC-1, H-MEC-1; for GI50: GI=growth inhibition, read-out: GI50 H-MEC-1; for IC (TGI): total growth inhibition (cytostatic effect), read-out: TGI H-MEC-1
Text: as §2, §3, §4, §5

[2] = Homo sapiens, SK-MEL-28, MEL-28
[3] = total growth inhibition (cytostatic effect)

Compound: COc1cc(-c2c3c4cc(OC)c(O)cc4oc(=O)c3n3ccc4cc(OC)c(OC)cc4c23)ccc1O [Compound 26]
- GI50 (K-562; Homo sapiens, K562, K-562): 0.785 µM
- CC50 (K-562; Homo sapiens, K562, K-562, cell killing (cytotoxic effect)): 16.1 µM
- IC (TGI) (K-562; Homo sapiens, K562, K-562, total growth inhibition (cytostatic effect)): 3.41 µM
- GI50 (A-549; Homo sapiens, A549, A-549): 1.11 µM
- CC50 (A-549; Homo sapiens, A549, A-549, cell killing (cytotoxic effect)): 19.5 µM
- IC (TGI) (A-549; Homo sapiens, A549, A-549, total growth inhibition (cytostatic effect)): 8.1 µM
- GI50 (SK-MEL-28; [2]): 2.08 µM
- CC50 (SK-MEL-28; [2]): 19.5 µM
- IC (TGI) (SK-MEL-28; Homo sapiens, SK-MEL-28, MEL-28, total growth inhibition (cytostatic effect), read-out: TGI MEL-28): 7.79 µM
- GI50 (HT-29; Homo sapiens, HT-29, HT-29): 9.17 µM
- CC50 (HT-29; Homo sapiens, HT-29, HT-29, cell killing (cytotoxic effect)): 19.5 µM
- IC (TGI) (HT-29; Homo sapiens, HT-29, HT-29, total growth inhibition (cytostatic effect)): 19.5 µM
- GI50 (LoVo; Homo sapiens, LoVo): 1.19 µM
- CC50 (LoVo; Homo sapiens, LoVo, cell killing (cytotoxic effect)): 19.5 µM
- IC (TGI) (LoVo; Homo sapiens, LoVo, total growth inhibition (cytostatic effect)): 10 µM
- GI50 (LoVo-Dox; Homo sapiens): 0.867 µM
- CC50 (LoVo-Dox; Homo sapiens, cell killing (cytotoxic effect)): 19.5 µM
- IC (TGI) (LoVo-Dox; Homo sapiens, total growth inhibition (cytostatic effect)): 7.63 µM
- GI50 (DU-145; Homo sapiens, DU-145, DU-145): 0.611 µM
- CC50 (DU-145; Homo sapiens, DU-145, DU-145): 19.5 µM
- IC (TGI) (DU-145; Homo sapiens, DU-145, DU-145, total growth inhibition (cytostatic effect), read-out: TGI DU-145): 2.94 µM
- GI50 (LNCaP; Homo sapiens, LNCaP): 0.711 µM
- CC50 (LNCaP; Homo sapiens, LNCaP): 14.7 µM
- IC (TGI) (LNCaP; Homo sapiens, LNCaP): 4.3 µM
- GI50 (SK-BR-3; Homo sapiens, SK-BR-3, SK-BR-3): 0.0966 µM
- CC50 (SK-BR-3; Homo sapiens, SK-BR-3, SK-BR-3): 13.6 µM
- IC (TGI) (SK-BR-3; Homo sapiens, SK-BR-3, SK-BR-3, total growth inhibition (cytostatic effect), read-out: TGI SK-BR-3): 1.09 µM
- GI50 (IGROV; Homo sapiens): 0.504 µM
- CC50 (IGROV; Homo sapiens): 13 µM
- IC (TGI) (IGROV; Homo sapiens, total growth inhibition (cytostatic effect), read-out: TGI IGROV): 2.3 µM
- GI50 (IGROV-ET; Homo sapiens): 0.574 µM
- CC50 (IGROV-ET; Homo sapiens): 19.5 µM
- IC (TGI) (IGROV-ET; Homo sapiens, total growth inhibition (cytostatic effect), read-out: TGI IGROV-ET): 2.08 µM
- GI50 (PANC-1; Homo sapiens, PANC-1, PANC-1): 1.07 µM
- CC50 (PANC-1; Homo sapiens, PANC-1, PANC-1, cell killing (cytotoxic effect)): 19.5 µM
- IC (TGI) (PANC-1; Homo sapiens, PANC-1, PANC-1, total growth inhibition (cytostatic effect)): 8.8 µM
- GI50 (SKOV-3): 0.874 µM
- LC50 (concentration causing 50% net cell killing) (SKOV-3): 19.5 µM
- IC (TGI) (SKOV-3): 5.53 µM
- LC50 (concentration giving 50% net cell killing) [1]: 19.5 µM
- GI50 (H-MEC-1): 0.798 µM
- IC (TGI) (H-MEC-1): 19.5 µM

Compound: COc1cc(-c2c3c4cc(OC)c(OC(=O)[C@@H](N)Cc5ccccc5)cc4oc(=O)c3n3ccc4c(OC(=O)[C@@H](N)Cc5ccccc5)c(OC)c(OC)cc4c23)ccc1OC(=O)[C@@H](N)Cc1ccccc1 [Compound 31]
- CC50 (K-562; Homo sapiens, K562, K-562, LC=cell killing (cytotoxic effect)): 7.62 µM
- IC (TGI) (K-562; Homo sapiens, K562, K-562, TGI=total growth inhibition (cytostatic effect)): 2.47 µM
- GI50 (K-562; K-562): 0.41 µM
- GI50 (A-549; A-549): 0.433 µM
- CC50 (A-549; Homo sapiens, A549, A-549, LC=cell killing (cytotoxic effect)): 4.6 µM
- IC (TGI) (A-549; Homo sapiens, A549, A-549, TGI=total growth inhibition (cytostatic effect)): 1.42 µM
- CC50 (SK-MEL-28; [2]): 7.62 µM
- GI50 (SK-MEL-28; MEL-28): 0.482 µM
- TGI MEL-28 (SK-MEL-28; MEL-28, total growth inhibition (cytostatic effect)): 7.62E−06 Molar
- GI50 (HT-29; HT-29): 7.62 µM
- CC50 (HT-29; Homo sapiens, HT-29, HT-29, LC=cell killing (cytotoxic effect)): 7.62 µM
- IC (TGI) (HT-29; Homo sapiens, HT-29, HT-29, TGI=total growth inhibition (cytostatic effect)): 7.62 µM
- CC50 (LoVo; Homo sapiens, LoVo, LC=cell killing (cytotoxic effect)): 7.62 µM
- IC (TGI) (LoVo; Homo sapiens, LoVo, TGI=total growth inhibition (cytostatic effect)): 5.35 µM
- GI50 (LoVo; LOVO): 1.98 µM
- CC50 (LoVo-Dox; Homo sapiens, LC=cell killing (cytotoxic effect)): 7.62 µM
- IC (TGI) (LoVo-Dox; Homo sapiens, TGI=total growth inhibition (cytostatic effect)): 7.62 µM
- GI50 (LoVo-Dox): 1.49 µM
- GI50 (DU-145; DU-145): 0.301 µM
- CC50 (DU-145; DU-145): 7.62 µM
- TGI DU-145 (DU-145; DU-145, total growth inhibition (cytostatic effect)): 8.61E−07 Molar
- CC50 (LNCaP; Homo sapiens, LNCaP): 3.43 µM
- IC (TGI) (LNCaP; Homo sapiens, LNCaP): 1.45 µM
- GI50 (LNCaP): 0.548 µM
- CC50 (SK-BR-3; Homo sapiens, SK-BR-3, SK-BR-3): 7.62 µM
- GI50 (SK-BR-3; SK-BR-3): 1.8 µM
- TGI SK-BR-3 (SK-BR-3; SK-BR-3, total growth inhibition (cytostatic effect)): 7.62E−06 Molar
- GI50 (IGROV): 1.26 µM
- CC50 (IGROV): 7.62 µM
- TGI IGROV (IGROV; [3]): 7.62E−06 Molar
- GI50 (IGROV-ET): 1.39 µM
- CC50 (IGROV-ET): 7.62 µM
- TGI IGROV-ET (IGROV-ET; [3]): 4.00E−06 Molar
- CC50 (PANC-1; Homo sapiens, PANC-1, PANC-1, LC=cell killing (cytotoxic effect)): 7.62 µM
- IC (TGI) (PANC-1; Homo sapiens, PANC-1, PANC-1, TGI=total growth inhibition (cytostatic effect)): 7.62 µM
- GI50 (PANC-1; PANC-1): 1.96 µM
- GI50 (SKOV-3): 0.524 µM
- LC50 (concentration causing 50% net cell killing) (SKOV-3): 7.62 µM
- IC (TGI) (SKOV-3): 4.22 µM
- LC50 (concentration giving 50% net cell killing) [1]: 0.565 µM
- GI50 (H-MEC-1): 0.119 µM
- IC (TGI) (H-MEC-1): 0.26 µM
